# pEC50, pIC50: −log10 of the molar value.
# What was measured:
# in vitro [1] = details: human, pbl
# Measles morbillivirus = type: functional
# [2] = target: Receptor tyrosine-protein kinase erbB-2 (Homo sapiens, UniProt P04626)
# Huh7.5.1 = experiment: Cytotoxicity against human Huh-7.5.1 cells at 0.9 uM; type: toxicity, cell-based; details: huh7.5.1, 0.9 µM
# Dengue virus [3] = experiment: microbe, parasite or virus in culture
# in vitro [4] = details: dog
# Influenza A virus [5] = experiment: microbe, parasite or virus in culture; type: functional, organism-based
# Hepatitis C virus [6] = experiment: microbe, parasite or virus in culture
# [7] = Cytotoxicity against human A549 cells; type: toxicity, cell-based
# Human rhinovirus sp. = experiment: Antiviral activity against RV; type: functional, organism-based, Enterovirus
# Influenza B virus [8] = experiment: Antiviral activity against influenza B virus; type: functional, organism-based
# in vitro [9] = details: human, Huh-7 cells
# [10] = target: Phosphatidylinositol 4-phosphate 3-kinase C2 domain-containing subunit beta (Homo sapiens, UniProt O00750); experiment: Inhibition of PIK3C2beta (unknown origin)
# [11] = target: Epidermal growth factor receptor (Homo sapiens, UniProt P00533)
# [12] = Cytotoxicity against human CEM-T4 cells; type: toxicity, cell-based
# [13] = test system: Human immunodeficiency virus 1; experiment: Antiviral activity against HIV-1 assessed as inhibition of Nef mediated replication; type: functional, organism-based
# Influenza A virus [14] = experiment: microbe, parasite or virus in culture; details: H7N7
# Influenza A virus [15] = experiment: microbe, parasite or virus in culture; details: GSB H5N1
# Influenza A virus [16] = experiment: microbe, parasite or virus in culture; details: H1N1v, A549
# Influenza A virus [17] = experiment: microbe, parasite or virus in culture; details: MB1 H5N1
# Influenza A virus [18] = experiment: microbe, parasite or virus in culture; details: A/FPV/Bratislava/79 (H7N7), MDCK-II
# Influenza A virus [19] = experiment: microbe, parasite or virus in culture; details: FPV H7N7
# Influenza A virus [20] = experiment: microbe, parasite or virus in culture; details: Lung, 24 h
# Influenza A virus [21] = experiment: microbe, parasite or virus in culture; details: RB1 H1N1
# [22] = Cytotoxicity against human NCI-H1650 cells; type: toxicity, cell-based
# [23] = Cytotoxicity against human NCI-H358 cells; type: toxicity, cell-based
# Focal adhesion kinase 1 = Focal adhesion kinase 1 (Homo sapiens, UniProt Q05397); experiment: Inhibition of FAK (unknown origin)
# [24] = Cytotoxicity against MDDC cells (unknown origin); type: toxicity, cell-based
# [25] = Cytotoxicity against HMC3 cells; type: toxicity, cell-based; details: human
# [26] = target: Calcium/calmodulin-dependent protein kinase type II subunit gamma (Homo sapiens, UniProt Q13555); experiment: Inhibition of CAMK-II (unknown origin)
# Human betaherpesvirus 5 [27] = experiment: microbe, parasite or virus in culture; type: functional, organism-based
# [28] = target: T1, Cyclin-dependent kinase 7 (Homo sapiens, UniProt P50613)
# in vitro [29] = details: human, hff
# [30] = target: T1, Cyclin-dependent kinase 7; remark: listed apart in the source
# [31] = Cytotoxicity against HEK293 cells; type: toxicity, cell-based; details: human
# Dengue virus [32] = experiment: Antiviral activity against DENV infected in HEK293 cells; type: functional, organism-based
# Influenza A virus [33] = experiment: microbe, parasite or virus in culture; type: functional, organism-based; details: A/ck/Yamaguchi/7/2004 (H5N10)
# Influenza A virus [34] = experiment: Antiviral activity against influenza A virus (A/WSN/1933) strain; type: functional, organism-based
# Influenza A virus [35] = experiment: microbe, parasite or virus in culture; type: functional, organism-based; details: H3N2
# Influenza A virus [36] = experiment: microbe, parasite or virus in culture; type: functional, organism-based; details: A/Anhui/1/2013 (H7N9)
# [37] = target: Tyrosine-protein kinase JAK2 (Homo sapiens, UniProt O60674); details: dose 50.0 nM
# Influenza A virus [38] = experiment: microbe, parasite or virus in culture; type: functional, organism-based; details: H5N1
# Influenza A virus [39] = experiment: microbe, parasite or virus in culture; type: functional, organism-based; details: H7N9
# [40] = Cytotoxicity against human HCT-116 cells; type: toxicity, cell-based
# Zika virus [41] = experiment: Antiviral activity against ZIKV MR766 infected in 1 hr pretreated rhesus monkey LLC-MK2 cells measured after 24 to 72 hrs; type: functional, organism-based
# Zika virus [42] = experiment: microbe, parasite or virus in culture
# Murine coronavirus [43] = experiment: Antiviral activity against MHV; type: functional, organism-based
# Murine coronavirus [44] = experiment: Antiviral activity against mCoV-68 infected in african green monkey Vero cells incubated for 7 days by counting number of plaque by crystal violet staining method; type: functional, organism-based; details: Murine coronavirus, 68, Vero, 168 h
# [45] = Cytotoxicity against mouse NIH3T3 cells; type: toxicity, cell-based
# [46] = target: Cyclin-dependent kinase 2 (Homo sapiens, UniProt P24941)
# [47] = Cytotoxicity against human astrocyte cells; type: toxicity, cell-based
# HepG2 = experiment: Cytotoxicity against human HepG2 cells at 1 uM; type: toxicity, cell-based; details: hepg2, 1 µM
# Hepatitis B virus = experiment: microbe, parasite or virus in culture; type: functional, organism-based
# in vitro [48] = details: human, jurkat
# in vitro [49] = details: human, ccrf-cem
# in vitro [50] = details: human, u-937
# Human alphaherpesvirus 1 = experiment: microbe, parasite or virus in culture; type: functional, organism-based
# [51] = Cytotoxicity against HEK cells; type: toxicity, cell-based; details: human
# [52] = Cytotoxicity against human HCE cells; type: toxicity, cell-based
# in vitro [53] = details: human, HeLa cells
# Human alphaherpesvirus 2 = experiment: Antiviral activity against HSV-2 assessed as reduction in virus titre at 10 uM relative to control; type: functional; design: scale not given: the % may be the effect or the level left
# [54] = target: Inhibitor of nuclear factor kappa-B kinase subunit epsilon (Homo sapiens, UniProt Q14164); experiment: Inhibition of IKK epsilon (unknown origin)
# in vitro [55] = details: human, hek-293t
# Zaire ebolavirus = experiment: microbe, parasite or virus in culture; type: functional, organism-based
# Hepatitis C virus [56] = experiment: Antiviral activity against HCV assessed as fold reduction in virus titre at 10 uM; type: functional, Hepacivirus hominis
# Human betaherpesvirus 5 [57] = experiment: Antiviral activity against HCMV assessed as inhibition of DNA synthesis at 10 uM relative to control; type: functional
# [58] = Cytotoxicity against human LU cells; type: toxicity, cell-based
# Influenza A virus [59] = experiment: Antiviral activity against influenza A virus assessed as log reduction of virus at 5 to 10 uM; type: functional; details: dose 5-10 µM
# [60] = Cytotoxicity against human MCF7 cells; type: toxicity, cell-based
# [61] = target: Protein kinase C beta type (Homo sapiens, UniProt P05771); experiment: Inhibition of PKCbeta2 (unknown origin)
# [62] = Cytotoxicity against human HL-60 cells; type: toxicity, cell-based
# Influenza B virus [63] = experiment: Antiviral activity against influenza B virus assessed as log reduction of virus at 5 to 10 uM; type: functional; details: dose 5-10 µM
# Lyssavirus rabies = experiment: microbe, parasite or virus in culture; type: functional, organism-based
# [64] = test system: Porcine epidemic diarrhea virus; experiment: Antiviral activity against PEDV assessed as log reduction in virus progeny at 4 uM; type: functional
# [65] = test system: Feline infectious peritonitis virus; experiment: Antiviral activity against FIPV assessed as log reduction in virus progeny at 4 uM; type: functional
# [66] = Cytotoxicity against golden hamster BSR cells; type: toxicity, cell-based, Mesocricetus auratus
# Murine coronavirus [67] = experiment: Antiviral activity against MHV assessed as log reduction in virus progeny at 4 uM; type: functional
# Influenza A virus [68] = experiment: Antiviral activity against influenza A virus infected in human A549 cells assessed as inhibition of viral replication at 4 uM relative to control; type: functional; design: scale not given: the % may be the effect or the level left
# [69] = Inhibition of PDGF (unknown origin); design: species or system Homo sapiens
# [70] = Cytotoxicity against pig PK-15 cells; type: toxicity, cell-based, Sus scrofa
# [71] = test system: Transmissible gastroenteritis virus; experiment: Antiviral activity against TGEV assessed as reduction in virus titre at 4 uM; type: functional
# [72] = test system: Transmissible gastroenteritis virus; experiment: Antiviral activity against TGEV assessed as log reduction in virus progeny at 4 uM; type: functional
# T1 sequence (P50613 whole entry): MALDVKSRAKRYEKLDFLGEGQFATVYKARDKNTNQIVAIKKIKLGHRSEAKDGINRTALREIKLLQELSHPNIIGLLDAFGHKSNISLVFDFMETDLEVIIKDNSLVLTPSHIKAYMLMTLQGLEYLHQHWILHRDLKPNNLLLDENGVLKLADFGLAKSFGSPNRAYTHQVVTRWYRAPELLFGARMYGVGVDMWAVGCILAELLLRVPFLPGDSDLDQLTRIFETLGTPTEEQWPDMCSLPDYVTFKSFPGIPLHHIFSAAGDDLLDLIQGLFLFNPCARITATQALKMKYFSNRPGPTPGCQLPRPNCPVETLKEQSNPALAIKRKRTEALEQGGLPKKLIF
# Sequence of Inhibitor of nuclear factor kappa-B kinase subunit epsilon (Q14164 whole entry): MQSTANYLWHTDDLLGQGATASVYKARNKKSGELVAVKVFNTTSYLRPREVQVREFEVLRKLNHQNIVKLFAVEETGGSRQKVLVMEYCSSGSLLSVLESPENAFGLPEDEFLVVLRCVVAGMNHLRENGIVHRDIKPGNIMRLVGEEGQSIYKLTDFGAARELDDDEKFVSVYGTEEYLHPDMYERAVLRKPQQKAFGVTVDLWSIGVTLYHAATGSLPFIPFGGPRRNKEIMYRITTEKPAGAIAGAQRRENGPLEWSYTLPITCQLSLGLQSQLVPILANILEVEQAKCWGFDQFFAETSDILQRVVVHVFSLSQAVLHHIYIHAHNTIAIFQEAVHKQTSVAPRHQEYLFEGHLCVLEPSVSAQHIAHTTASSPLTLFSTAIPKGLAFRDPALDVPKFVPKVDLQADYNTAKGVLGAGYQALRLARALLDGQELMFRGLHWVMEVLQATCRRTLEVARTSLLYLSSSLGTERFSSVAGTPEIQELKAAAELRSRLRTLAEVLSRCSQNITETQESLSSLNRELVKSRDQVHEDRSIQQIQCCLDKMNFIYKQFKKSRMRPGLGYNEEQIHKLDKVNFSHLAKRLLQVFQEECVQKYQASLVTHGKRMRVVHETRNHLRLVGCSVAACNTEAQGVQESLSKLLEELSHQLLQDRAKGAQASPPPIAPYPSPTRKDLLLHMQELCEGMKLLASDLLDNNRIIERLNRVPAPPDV
# Sequence of Calcium/calmodulin-dependent protein kinase type II subunit gamma (Q13555 whole entry): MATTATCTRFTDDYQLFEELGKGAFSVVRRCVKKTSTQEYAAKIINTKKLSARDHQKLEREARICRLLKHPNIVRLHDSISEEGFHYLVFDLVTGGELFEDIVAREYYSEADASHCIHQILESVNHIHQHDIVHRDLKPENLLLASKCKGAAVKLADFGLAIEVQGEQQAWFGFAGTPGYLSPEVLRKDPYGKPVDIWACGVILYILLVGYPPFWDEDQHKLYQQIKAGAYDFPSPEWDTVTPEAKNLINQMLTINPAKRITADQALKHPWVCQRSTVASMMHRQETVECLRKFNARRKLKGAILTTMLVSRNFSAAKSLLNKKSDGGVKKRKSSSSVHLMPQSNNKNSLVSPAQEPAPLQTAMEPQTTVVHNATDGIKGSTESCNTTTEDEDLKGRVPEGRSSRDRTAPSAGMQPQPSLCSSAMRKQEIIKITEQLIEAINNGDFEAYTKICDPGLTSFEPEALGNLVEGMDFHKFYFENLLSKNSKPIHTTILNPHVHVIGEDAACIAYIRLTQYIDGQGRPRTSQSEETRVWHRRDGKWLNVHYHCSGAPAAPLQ
# Sequence of Protein kinase C beta type (P05771 whole entry): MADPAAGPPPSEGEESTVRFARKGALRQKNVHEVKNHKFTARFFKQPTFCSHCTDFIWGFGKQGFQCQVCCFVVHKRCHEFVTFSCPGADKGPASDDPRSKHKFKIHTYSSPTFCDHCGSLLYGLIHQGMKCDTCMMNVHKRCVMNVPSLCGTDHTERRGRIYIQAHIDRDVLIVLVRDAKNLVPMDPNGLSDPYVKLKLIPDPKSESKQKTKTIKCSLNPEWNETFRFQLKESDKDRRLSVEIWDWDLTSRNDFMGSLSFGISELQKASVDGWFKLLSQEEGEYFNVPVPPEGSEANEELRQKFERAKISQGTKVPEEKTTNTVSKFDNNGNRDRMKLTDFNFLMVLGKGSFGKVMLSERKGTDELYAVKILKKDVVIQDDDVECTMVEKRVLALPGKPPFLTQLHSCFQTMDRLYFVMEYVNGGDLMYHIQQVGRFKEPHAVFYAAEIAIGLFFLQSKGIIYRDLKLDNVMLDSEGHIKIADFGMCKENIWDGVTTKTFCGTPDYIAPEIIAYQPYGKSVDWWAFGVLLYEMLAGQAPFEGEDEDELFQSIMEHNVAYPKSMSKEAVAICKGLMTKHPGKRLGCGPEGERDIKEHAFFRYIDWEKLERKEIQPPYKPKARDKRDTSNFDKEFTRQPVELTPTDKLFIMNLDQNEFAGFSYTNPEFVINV
# Sequence of Tyrosine-protein kinase JAK2 (O60674 whole entry): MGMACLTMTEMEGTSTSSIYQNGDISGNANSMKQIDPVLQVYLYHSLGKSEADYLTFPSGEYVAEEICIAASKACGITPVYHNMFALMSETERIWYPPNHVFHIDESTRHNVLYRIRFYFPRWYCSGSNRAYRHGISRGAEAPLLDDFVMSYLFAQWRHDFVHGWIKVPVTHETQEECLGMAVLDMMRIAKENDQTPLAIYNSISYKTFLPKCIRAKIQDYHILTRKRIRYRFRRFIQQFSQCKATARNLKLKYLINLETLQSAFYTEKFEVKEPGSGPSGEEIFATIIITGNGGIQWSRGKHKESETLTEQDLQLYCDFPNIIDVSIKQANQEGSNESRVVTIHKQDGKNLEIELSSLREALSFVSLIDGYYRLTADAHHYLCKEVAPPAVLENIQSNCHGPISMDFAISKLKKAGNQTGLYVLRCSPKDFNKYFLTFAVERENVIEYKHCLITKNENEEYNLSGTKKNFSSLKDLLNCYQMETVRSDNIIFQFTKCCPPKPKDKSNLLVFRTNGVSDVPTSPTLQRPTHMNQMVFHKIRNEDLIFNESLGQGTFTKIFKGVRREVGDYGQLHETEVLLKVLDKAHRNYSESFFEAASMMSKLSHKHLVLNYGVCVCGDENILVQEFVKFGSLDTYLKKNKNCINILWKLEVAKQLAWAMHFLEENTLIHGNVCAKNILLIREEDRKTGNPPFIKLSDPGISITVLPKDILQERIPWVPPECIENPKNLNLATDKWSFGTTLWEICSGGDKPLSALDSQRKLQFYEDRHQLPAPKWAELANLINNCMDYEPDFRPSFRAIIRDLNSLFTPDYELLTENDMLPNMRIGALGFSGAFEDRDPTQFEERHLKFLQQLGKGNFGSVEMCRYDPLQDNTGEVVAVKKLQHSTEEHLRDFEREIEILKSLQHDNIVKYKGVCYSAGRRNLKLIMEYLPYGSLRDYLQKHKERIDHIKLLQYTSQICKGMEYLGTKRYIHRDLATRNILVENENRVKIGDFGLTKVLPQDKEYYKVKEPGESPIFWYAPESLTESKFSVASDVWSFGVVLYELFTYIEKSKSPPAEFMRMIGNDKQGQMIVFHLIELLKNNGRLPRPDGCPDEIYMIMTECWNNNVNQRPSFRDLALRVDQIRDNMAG
# Sequence of Receptor tyrosine-protein kinase erbB-2 (P04626 whole entry): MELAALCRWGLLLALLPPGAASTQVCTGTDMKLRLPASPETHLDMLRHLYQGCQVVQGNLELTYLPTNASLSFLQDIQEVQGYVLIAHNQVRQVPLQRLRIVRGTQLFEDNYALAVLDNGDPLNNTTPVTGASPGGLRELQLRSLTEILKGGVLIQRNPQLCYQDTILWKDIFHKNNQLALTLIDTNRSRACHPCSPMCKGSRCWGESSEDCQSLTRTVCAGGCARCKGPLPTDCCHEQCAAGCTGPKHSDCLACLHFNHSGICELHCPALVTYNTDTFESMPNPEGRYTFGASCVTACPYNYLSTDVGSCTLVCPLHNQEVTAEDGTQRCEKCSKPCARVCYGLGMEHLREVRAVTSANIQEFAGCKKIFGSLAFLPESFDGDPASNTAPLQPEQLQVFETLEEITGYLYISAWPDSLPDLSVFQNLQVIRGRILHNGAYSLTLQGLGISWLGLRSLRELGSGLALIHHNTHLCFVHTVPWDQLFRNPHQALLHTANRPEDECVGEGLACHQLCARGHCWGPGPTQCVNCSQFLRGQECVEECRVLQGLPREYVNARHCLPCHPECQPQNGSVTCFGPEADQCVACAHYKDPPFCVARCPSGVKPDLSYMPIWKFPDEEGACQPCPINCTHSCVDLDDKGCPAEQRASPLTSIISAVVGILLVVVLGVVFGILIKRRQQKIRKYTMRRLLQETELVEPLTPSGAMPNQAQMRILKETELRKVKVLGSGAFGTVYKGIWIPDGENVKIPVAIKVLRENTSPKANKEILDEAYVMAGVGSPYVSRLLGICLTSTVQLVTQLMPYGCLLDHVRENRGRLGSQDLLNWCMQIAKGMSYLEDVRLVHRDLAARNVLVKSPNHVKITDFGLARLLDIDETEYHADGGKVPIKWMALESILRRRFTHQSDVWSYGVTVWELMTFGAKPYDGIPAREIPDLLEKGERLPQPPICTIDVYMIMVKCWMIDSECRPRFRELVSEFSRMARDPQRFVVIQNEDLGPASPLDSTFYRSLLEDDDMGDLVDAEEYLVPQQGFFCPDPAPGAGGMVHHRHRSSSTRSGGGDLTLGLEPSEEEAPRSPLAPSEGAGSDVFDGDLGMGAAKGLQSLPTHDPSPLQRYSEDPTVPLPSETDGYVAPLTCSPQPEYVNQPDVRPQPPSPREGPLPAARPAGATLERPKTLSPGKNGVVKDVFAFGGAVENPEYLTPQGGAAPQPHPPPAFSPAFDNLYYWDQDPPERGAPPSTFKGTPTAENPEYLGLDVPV
smiles,measurement,setting,value
Oc1ccc(Nc2nc(-c3ccc(Cl)cc3)cs2)cc1,CC50,in vitro [1],> 5000 nM
same,inhibition (INH),Measles morbillivirus,70%
CCN(CC)CC1CCN(c2ncc3ncnc(Nc4ccc(F)c(Cl)c4)c3n2)CC1,pIC50,[2],6.54
same,Activity,Huh7.5.1,Non-Toxic
same,pIC50,Dengue virus [3],6.05
O=C(Cc1cccs1)Nc1cccc(-c2ccc3nnc(-c4cccnc4)n3n2)c1,CC50,in vitro [4]; MDCK cells,> 50000 nM
same,pEC50,Influenza A virus [5],6.46
same,pEC50,Hepatitis C virus [6],6.12
same,CC50,[7],> 50000 nM
same,pEC50,Human rhinovirus sp.,7.30
same,pEC50,Influenza B virus [8],6.40
same,CC50,in vitro [9],> 50000 nM
same,pIC50,[10],6.37
same,pIC50,[11],7.10
NC(=S)n1nc(-c2ccc([N+](=O)[O-])cc2)c(/N=N/c2cccc(Cl)c2)c1O,CC50,[12],> 10000 nM
same,pIC50,[13],6.52
N#CC(=C(/N)Sc1ccccc1N)/C(C#N)=C(\N)Sc1ccccc1N,CC50,in vitro [4]; mdck,> 50000 nM
same,pEC50,Influenza A virus [14],3.21
same,pEC50,Influenza A virus [15],4.44
same,pEC50,Influenza A virus [16],5.92
same,pEC50,Influenza A virus [17],5.35
same,pIC50,Dengue virus [3],4.85
same,pEC50,Influenza A virus [18],4.13
same,pEC50,Influenza A virus [19],4.08
same,pEC50,Influenza A virus [20],3.21
same,pEC50,Influenza A virus [21],5.92
Nc1cc(N)c(N)cc1N,CC50,[7],> 1000 nM
same,CC50,[22],> 1000 nM
same,CC50,[23],> 1000 nM
same,pIC50,Focal adhesion kinase 1,6.00
COc1cc(-c2cnc3c(N4C[C@@H](C)O[C@@H](C)C4)snc3c2)ccc1N,pEC50,Dengue virus [3],5.46
same,CC50,[24],> 20000 nM
COc1ccc(S(=O)(=O)N(CCCC(=O)C2CCCCCC2)c2ccccc2)cc1,CC50,[25],> 12500 nM
same,pIC50,[26],6.10
CC(C)c1cnn2c(NCc3ccccc3-n3cccn3)nc(OC3CCCNC3)nc12 (stereo not given),pEC50,Human betaherpesvirus 5 [27],7.62
same,pIC50,[28],> 8.30
same,CC50,in vitro [29],6200 nM
same,pIC50,[30],> 8.30
O=S(=O)(NCCNC/C=C/c1ccc(Br)cc1)c1cccc2cnccc12,CC50,[31],> 1000 nM
same,pIC50,Dengue virus [3],6.02
same,pIC50,Dengue virus [32],6.05
CC1=C(C)C2NC(=O)C(CN3C(=S)N([C@@H](C)c4ccccc4)C(=O)C3C3CC3)C=C2C=C1 (stereo not given in full),CC50,in vitro [4]; MDCK cells,3800 nM
same,pIC50,Influenza A virus [33],7.70
same,pIC50,Influenza A virus [34],7.92
same,pEC50,Influenza A virus [35],7.70
same,pIC50,Influenza A virus [36],7.70
same,inhibition,[37],61%
same,pEC50,Influenza A virus [38],4.70
same,pEC50,Influenza A virus [39],4.70
CC(C)c1[nH]n(-c2c(Cl)cccc2Cl)c2nc(Cc3ccc(OCCO)cc3)nc(=O)c1-2,CC50,[40],40 nM
same,pIC50,[30],7.15
same,pIC50,Zika virus [41],7.57
same,pIC50,Zika virus [42],7.05
CC(C)=CCC[C@](C)(O)C1CC[C@]2(C)[C@@H]1[C@H](O)C[C@@H]1[C@@]3(C)CC[C@H](O[C@@H]4O[C@H](CO)[C@@H](O)[C@H](O)[C@H]4O[C@@H]4O[C@H](CO)[C@@H](O)[C@H](O)[C@H]4O)C(C)(C)[C@@H]3CC[C@]12C (stereo not given in full),pIC50,Murine coronavirus [43],5.00
same,pIC50,Murine coronavirus [44],5.00
same,CC50,[45],> 50000 nM
CCCc1cnc(NC(=O)[C@@H](C)c2ccc(NC(C)=O)cc2)s1,pIC50,[46],7.51
same,CC50,[47],> 10000 nM
same,pIC50,Zika virus [42],7.05
Cc1n[nH]c2ccc(-c3cncc(OC[C@@H](N)Cc4c[nH]c5ccccc45)c3)cc12 [A-443654],Activity,HepG2,Non-Toxic
same,inhibition (INH),Hepatitis B virus,50%
O=C1Cc2c([nH]c3ccc([N+](=O)[O-])cc23)-c2ccccc2N1 [ALSTERPAULLONE],CC50,in vitro [48],> 1000 nM
same,CC50,in vitro [49],> 1000 nM
same,CC50,in vitro [50],> 1000 nM
O=C(NCCCNc1nc(Nc2cccc(NC(=O)N3CCCC3)c2)ncc1I)c1cccs1 [BX-795],pEC50,Human alphaherpesvirus 1,5.00
same,CC50,[51],46000 nM
same,CC50,[52],46000 nM
same,CC50,in vitro [53],46000 nM
same,Activity,Human alphaherpesvirus 2,>90%
same,pIC50,[54],7.39
O=c1cc(N2CCOCC2)oc2c(-c3ccccc3)cccc12 [LY-294002],CC50,in vitro [55],> 20000 nM
same,pEC50,Zaire ebolavirus,5.74
same,fold change (FC),Hepatitis C virus [56],5
Cn1cnc2c(NCc3ccccc3)nc(NCCO)nc21 [OLOMOUCINE],inhibition at 10 µM,Human betaherpesvirus 5 [57],50%
same,CC50,[58],> 15000 nM
O=C1NC(=O)C(c2c[nH]c3ccccc23)=C1c1c[nH]c2ccccc12 [RO-316233],log(activity),Influenza A virus [59],1
same,CC50,[60],> 8000 nM
same,pIC50,[61],7.80
same,CC50,[62],> 8000 nM
same,log(activity),Influenza B virus [63],1
CC(C)(C)c1cc(C=C(C#N)C#N)cc(C(C)(C)C)c1O [TYRPHOSTIN A9],pEC50,Lyssavirus rabies,6.05
same,log(activity),[64],2.3
same,log(activity),[65],2.3
same,CC50,[66],150000 nM
same,log(activity),Murine coronavirus [67],2.3
same,Activity,Influenza A virus [68],50%
same,pIC50,[69],6.30
same,CC50,[70],> 6000 nM
same,log(activity),[71],3
same,log(activity),[72],2.3
